Measurements from patent US8551312B2, “Process to prepare amino acid-N, N-diacetic acid compounds” (Akzo Nobel N.V., priority 2006, dated 2013).

Assays:
Type in all cases: physicochemical
[1] = Conductivity of c. 40 wt % chelate solution (Knick Konductometer 703); settings: c. 40 wt % chelate in water
Protocol: (§1) Commercial Dissolvine® GL-38, Dissolvine® H-40 ex Akzo Nobel Chemicals, and Trilon® M ex BASF were used as reference GLDA-Na4, HEDTA-Na3, and MGDA-Na3, respectively. The partially acidified chelates (40% in water) were prepared by addition of the corresponding chelate acid (in water) to the commercial product until the highest pH was obtained at which less than 0.1 wt % fully neutralized chelate is present. GLDA-H4 was prepared by electrodialysis and MGDA-Nax<3H3−x was made from Trilon® M by ion exchange. The desired pH was derived from the species distribution graphs that are based on the protonation constants. The resulting chelate solutions all have a chelate content (Fe-TSV) between 38.3 and 43 wt % of the salt actually present.
The conductivity was measured with a Knick Konductometer 703.

[2] = pH of the c. 40 wt % chelate solution by glass electrode; settings: c. 40 wt % chelate solution as such
Protocol: as §1, with “constants.” for “constants. The resulting chelate solutions all have a chelate content (Fe-TSV) between 38.3 and 43 wt % of the salt actually present.”
The pH of the c. 40 wt % chelate solution as such was determined by a glass electrode.

[3] = Viscosity (Brookfield DV-II+ pro viscometer, S-18 spindle); settings: c. 40 wt % chelate in water
Protocol: as §1
The viscosity was determined with a Brookfield DV-II+ pro viscometer, using a S-18 spindle. The temperature was maintained with a cryostat.

[4] = Corrosiveness against aluminium, weight loss of submerged plates; settings: aluminium plates submerged in c. 40 wt % chelate solution at RT
Protocol: as §1
The corrosiveness against aluminium was determined using unspecified aluminium plates. The aluminium plates of 6×3×0.2 cm, supplied by the technical service, were cleaned with ethanol cleaner and dried and the weight of the plates was measured. Subsequently, the plates were completely submerged in the commercial or partially acidified chelate solution and kept at RT. In time, the plates were removed from the solutions, rinsed, dried by technical air, and weighted. The corrosiveness was expressed as the weight loss after a certain period of time. Furthermore, the aluminium plates and the chelate solution were visually inspected to evaluate the corrosion process.

Conductivity (mS/cm) at 20° C. [1] [mS/cm]	pH [2]	Viscosity at 20° C. (Mpas) [3] [Mpas]	Viscosity at 40° C. (Mpas) [3] [Mpas]	Molecule	Corrosiveness Aluminium (% weigth loss after 70 hr) [4] [% weigth loss]
20.29	13.4	31	14.7	O=C([O-])CN(CCO)CCN(CC(=O)[O-])CC(=O)[O-].[Na+].[Na+].[Na+] [HEDTA-Na3]	7
25.8	13.5	26	11.0	CC(C(=O)[O-])N(CC(=O)[O-])CC(=O)[O-].[Na+].[Na+].[Na+] (stereo not drawn) [MGDA-Na3]	6

Molecule	Conductivity (mS/cm) at 20° C. [1] [mS/cm]	pH [2]	Viscosity at 20° C. (Mpas) [3] [Mpas]	Viscosity at 40° C. (Mpas) [3] [Mpas]	Corrosiveness Aluminium (% weigth loss after 70 hr) [4] [% weigth loss]
tetrasodium glutamic acid-N,N-diacetate [GLDA-Na4]	20.9	13.5	51.5	21.4	7
